Target: T1, GID4 (Uniprot ID: Q81VV7, residues 124-289) (Homo sapiens, UniProt Q8IVV7)
T1 construct: GID4 (Uniprot ID: Q81VV7, residues 124-289)
T1 sequence (Q8IVV7 124-289): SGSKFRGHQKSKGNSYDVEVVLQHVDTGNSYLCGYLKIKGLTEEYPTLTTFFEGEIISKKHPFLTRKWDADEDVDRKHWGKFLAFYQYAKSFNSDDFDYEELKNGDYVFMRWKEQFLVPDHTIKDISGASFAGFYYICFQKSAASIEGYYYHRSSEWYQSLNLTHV
Assay: GID4 competitive binding assay (AlphaScreen, GID4/degron peptide PGLW)
Details: 24 nM GID4, 48 nM biotinylated degron peptide PGLW, 4° C., read-out: IC50 (Inhibition of GID4/Degron binding by test compounds)
Summary of the method: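 Displacement of biotin-tagged degron tetrapeptide PGLW (48 nM) from C-terminally 6His-tagged GID4 124-289 (24 nM) read by AlphaScreen proximity signal. Compound incubation 2 h, then beads 1 h, all at 4 °C, pH 7.5, 2% DMSO final; background-corrected inhibition fitted with variable slope for IC50.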

| Compound | IC50 |
| --- | --- |
| CNc1cc(N2CCCC(c3cnc4ccccn34)C2)nc(C(C)C)n1 (single isomer, unassigned) [Compound 125, (S/R)-6-(3-(imidazo[1,2-a]pyridin-3-yl)piperidin-1-yl)-2-isopropyl-N-methylpyrimidin-4-amine] | 0.5 to 5 µM |
| CNc1cc(N2CCN(C)[C@@H](c3ccccc3Br)C2)nc(N)n1 (stereo in doubt) [Compound 155, (S/R)-6-(3-(2-bromophenyl)-4-methylpiperazin-1-yl)-N4-methylpyrimidine-2,4-diamine] | < 0.5 µM |
| CC(C)c1nc(N)cc(N2CCN(C)C(c3ccccc3Br)C2)n1 (stereo not shown) [Compound 74, 6-(3-(2-bromophenyl)-4-methylpiperazin-1-yl)-2-isopropylpyrimidin-4-amine] | 0.5 to 5 µM |
| CC(C)c1cc(N2CCNC(c3cc(C(=O)NCCN(C)C)ccc3Br)C2)nc(N)n1 (single isomer, unassigned) [Compound 20, R or S-3-(4-(2-amino-6-isopropylpyrimidin-4-yl)piperazin-2-yl)-4-bromo-N-(2-(dimethylamino)ethyl)benzamide] | 0.5 to 5 µM |
| CC(C)c1cc(N2CCCC(c3nc4ccccc4[nH]3)C2)nc(N)n1 (stereo not shown) [Compound 181, 4-(3-(1H-benzo[d]imidazol-2-yl)piperidin-1-yl)-6-isopropylpyrimidin-2-amine] | > 5 µM |
| CC(C)c1cc(N2CCNC(c3cc(F)ccc3Br)C2)nc(N)n1 (stereo not shown) [Compound 174, 4-(3-(2-bromo-5-fluorophenyl)piperazin-1-yl)-6-isopropylpyrimidin-2-amine] | 0.5 to 5 µM |
| CNc1cc(N2CCOC(c3ccccc3)C2)nc(N)n1 (single isomer, unassigned) [Compound 108, (R/S)-N4-methyl-6-(2-phenylmorpholino)pyrimidine-2,4-diamine] | > 5 µM |
| CC(C)c1nc(N2CCCC(c3cnc4ccccn34)C2)c2nc[nH]c2n1 (stereo not shown) [Compound 376, 6-(3-(imidazo[1,2-a]pyridin-3-yl)piperidin-1-yl)-2-isopropyl-9H-purine] | < 0.5 µM |
| CC(C)c1cc(N2CCN[C@H](c3cnc4ccccn34)C2)c2nc[nH]c2n1 (stereo in doubt) [Compound 369, (S/R)-7-(3-(imidazo[1,2-a]pyridin-3-yl)piperazin-1-yl)-5-isopropyl-3H-imidazo[4,5-b]pyridine] | < 0.5 µM |
| CC(C)c1nc(N2CCNC(c3cnc4ccccn34)C2)c2nc[nH]c2n1 (stereo not shown) [Compound 373, 6-(3-(imidazo[1,2-a]pyridin-3-yl)piperazin-1-yl)-2-isopropyl-9H-purine] | < 0.5 µM |
| Nc1nc(N2CCCC(c3ccn[nH]3)C2)c2cc[nH]c2n1 (stereo not shown) [Compound 205, 4-(3-(1H-pyrazol-5-yl)piperidin-1-yl)-7H-pyrrolo[2,3-d]pyrimidin-2-amine] | > 5 µM |
| CC(=O)N1CCN(c2cc(N)nc(N)n2)C[C@@H]1c1ccccc1Br (stereo in doubt) [Compound 59, (S/R)-1-(2-(2-bromophenyl)-4-(2,6-diaminopyrimidin-4-yl)piperazin-1-yl)ethan-1-one] | > 5 µM |
| Nc1cc(N2CCCC(c3ncn4ccccc34)C2)nc(N)n1 (stereo not shown) [Compound 225, 6-(3-(imidazo[1,5-a]pyridin-1-yl)piperidin-1-yl)pyrimidine-2,4-diamine] | 0.5 to 5 µM |
| Nc1nccc2ccc(-c3csc(C(=O)N4CCCC4)c3)cc12 [Compound 349, (4-(1-aminoisoquinolin-7-yl)thiophen-2-yl)(pyrrolidin-1-yl)methanone] | > 5 µM |
| CN(C)CCNC(=O)c1c[nH]c2ncc(-c3ccc4ccnc(N)c4c3)cc12 [Compound 8, 5-(1-aminoisoquinolin-7-yl)-N-(2-(dimethylamino)ethyl)-1H-pyrrolo[2,3-b]pyridine-3-carboxamide] | > 5 µM |
| CN(C)CCCNC(=O)c1cccc(-c2ccc3ccnc(N)c3c2)c1 [Compound 348, 3-(1-aminoisoquinolin-7-yl)-N-(3-(dimethylamino)propyl)benzamide] | > 5 µM |

| Compound | IC50 |
| --- | --- |
| CN(C)CCCNC(=O)c1ccc(-c2cc(O)c3ncccc3c2)c(F)c1Cl [Compound 310, 2-chloro-N-(3-(dimethylamino)propyl)-3-fluoro-4-(8-hydroxyquinolin-6-yl)benzamide] | 0.5 to 5 µM |
| Nc1cc(N2CCOC(c3ccccc3Br)C2)nc(N)n1 (racemic) [Compound 145, (R/S)-6-(2-(2-bromophenyl)morpholino)pyrimidine-2,4-diamine] | 0.5 to 5 µM |
| Nc1nc2c(c(N3CCCC(c4ccn[nH]4)C3)n1)COCC2 (stereo not shown) [Compound 196, 4-(3-(1H-pyrazol-5-yl)piperidin-1-yl)-7,8-dihydro-5H-pyrano[4,3-d]pyrimidin-2-amine] | > 5 µM |
| CC(C)c1cc(N(C)CCc2c[nH]c3ccccc23)nc(N)n1 [Compound 179, N4-(2-(1H-indol-3-yl)ethyl)-6-isopropyl-N4-methylpyrimidine-2,4-diamine] | 0.5 to 5 µM |
| Nc1cc(N2CCC=C(c3ncn4ccccc34)C2)nc(N)n1 [Compound 237, 6-(5-(imidazo[1,5-a]pyridin-1-yl)-3,6-dihydropyridin-1(2H)-yl)pyrimidine-2,4-diamine] | 0.5 to 5 µM |
| CNc1cc(N2CCNC(c3csc4ccccc34)C2)nc(N)n1 (stereo not shown) [Compound 102, 6-(3-(benzo[b]thiophen-3-yl)piperazin-1-yl)-N4-methylpyrimidine-2,4-diamine] | 0.5 to 5 µM |
| CC(C)c1cc(N2CCNC(c3ccccc3)C2)nc(N)n1 (stereo not shown) [Compound 165, 4-isopropyl-6-(3-phenylpiperazin-1-yl)pyrimidin-2-amine] | > 5 µM |
| Nc1cc(N2CCNC(c3ccccc3C(F)(F)F)C2)nc(N)n1 (stereo not shown) [Compound 54, 6-(3-(2-(trifluoromethyl)phenyl)piperazin-1-yl)pyrimidine-2,4-diamine] | < 0.5 µM |
| Nc1cc(N2CCOC(c3ccccc3C(F)(F)F)C2)nc(N)n1 (stereo not shown) [Compound 29, 6-(2-(2-(trifluoromethyl)phenyl)morpholino)pyrimidine-2,4-diamine] | < 0.5 µM |
| CNc1nc(C(C)C)cc(N2CCCC(c3cnc4ccccn34)C2)n1 (stereo not shown) [Compound 134, 4-(3-(imidazo[1,2-a]pyridin-3-yl)piperidin-1-yl)-6-isopropyl-N-methylpyrimidin-2-amine] | < 0.5 µM |
| Nc1nc(NCC2CC2)cc(N2CCNC(c3ccccc3Br)C2)n1 (single isomer, unassigned) [Compound 111, (R/S)-6-(3-(2-bromophenyl)piperazin-1-yl)-N4-(cyclopropylmethyl)pyrimidine-2,4-diamine] | 0.5 to 5 µM |
| Oc1cc(C2=CCNCC2)cc2cccnc12 [Compound 324, 6-(1,2,3,6-tetrahydropyridin-4-yl)quinolin-8-ol] | 0.5 to 5 µM |
| CN(C)CCCNC(=O)c1ccc(-c2cc(O)c3ncccc3n2)cc1 [Compound 304, N-(3-(dimethylamino)propyl)-4-(4-hydroxy-1,5-naphthyridin-2-yl)benzamide] | 0.5 to 5 µM |
| Nc1cc(N2CCCC(n3c(=O)[nH]c4ccccc43)C2)nc(N)n1 (stereo not shown) [Compound 257, 1-(1-(2,6-diaminopyrimidin-4-yl)piperidin-3-yl)-1,3-dihydro-2H-benzo[d]imidazol-2-one] | > 5 µM |
| CC(C)c1cc(N2CCNC(c3cc(O)ccc3Br)C2)nc(N)n1 (stereo not shown) [Compound 163, 3-(4-(2-amino-6-isopropylpyrimidin-4-yl)piperazin-2-yl)-4-bromophenol] | < 0.5 µM |
